# Data reported in patent US11420959B2, “DACOS type NNRTIS amino acid ester derivative, preparation method thereof, pharmaceutical composition, and application thereof” (YUNNAN UNIVERSITY, priority 2018, dated 2022).
# Read-outs that look alike come from different tables or passages of the source.
# Experiments:
# HIV-1IIIB = experiment: Syncytium inhibition experiment, C8166 cells infected with HIV-1IIIB; assay type: cell-based; details: Human immunodeficiency virus 1, 72 h, syncytium count, three days
# Description: The specific method was described below.
# Syncytium inhibition experiment: 100 μL of C8166 cell suspension (4×10^5/mL) was inoculated into each well of a 96-well cell culture plate containing 5-fold serial dilutions of the compounds, followed by addition of HIV-1IIIB diluted supernatant (MOI=0.04). Three replicate wells were set for each serial concentration. […] The cells were incubated at 37° C. in a 5% CO2 incubator for three days. The number of the syncytia was counted in five non-overlapping fields of view by using an inverted microscope (100×). […] Calculation formula: cytopathic inhibition rate (%)=(1−number of syncytia in experimental wells/number of syncytia in control well)×100%.
# [1] = Cytotoxicity experiment (MTT method) on C8166 cells; assay type: cell-based; details: human
# Description: Cytotoxicity experiment: The toxicity of the compounds on C8166 cells was determined by MTT method. In a 96-well cell culture plate, the compounds were subjected to 5-fold serial dilution and 100 μL of C8166 cell suspension (4×10^5/mL) was added into each well. Three replicate wells were set for each concentration. At the same time, a cell control group without drugs and drug control groups with Zidovudine (AZT) or Nevirapine (NVP) were set. The cells were incubated at 37° C. in a 5% CO2 incubator for three days, followed by the addition of MTT solution into each well, and then the cells were incubated at 37° C. for 4 hours. 15% SDS-50% DMF was added to each well and the cells were incubated at 37° C. in a 5% CO2 incubator overnight. After mixing evenly, the OD values were measured by BIO-TEK ELx800 ELISA instrument (determination wavelength: 570 nm; reference wavelength: 630 nm).
# [2] = due to strong hydrophobicity; cited from earlier work
EC50 (HIV-1IIIB) [µM],SMILES,CC50 at 3 days [1] [µM],bioavailability [2],"CC50 at 3 days ([1]; C8166 cells, MTT, three days, read-out: CC50) [µM]"
0.003,CC(C)c1c(CC2CCCCC2)nc(SCC(=O)c2ccc(OC(=O)C(N)C(C)C)cc2)[nH]c1=O (stereo not shown) [Compound I-19],126,–,–
0.006,CCc1c(CC2CCCCC2)nc(SCC(=O)c2ccc(OC(=O)C(N)CCCCN)cc2)[nH]c1=O (stereo not shown) [Compound I-9],101,–,–
0.012,CCc1c(CC2CCCCC2)nc(SCC(=O)c2ccc(OC(=O)C3CCCN3)cc2)[nH]c1=O (stereo not shown) [Compound I-4],95.4,–,–
0.004,CCc1c(CC2CCCCC2)nc(SCC(=O)c2ccc(OC(=O)C(N)CC(N)=O)cc2)[nH]c1=O (stereo not shown) [Compound I-12],120,–,–
0.005,CCc1c(CC2CCCCC2)nc(SCC(=O)c2ccc(OC(=O)C(N)CCC(N)=O)cc2)[nH]c1=O (stereo not shown) [Compound I-11],118,–,–
0.009,CCc1c(CC2CCCCC2)nc(SCC(=O)c2ccc(OC(=O)C(N)Cc3ccccc3)cc2)[nH]c1=O (stereo not shown) [Compound I-7],90.1,–,–
0.004,CCc1c(CC2CCCCC2)nc(SCC(=O)c2ccc(OC(=O)C(N)Cc3c[nH]c4ccccc34)cc2)[nH]c1=O (stereo not shown) [Compound I-5],95.2,–,–
0.004,CC(C)c1c(CC2CCCCC2)nc(SCC(=O)c2ccc(OC(=O)C(N)Cc3c[nH]c4ccccc34)cc2)[nH]c1=O (stereo not shown) [Compound I-16],118,–,–
–,CCc1c(CC2CCCCC2)nc(SCC(=O)c2ccccc2)[nH]c1=O [DB02],–,low,–
0.004,CCc1c(CC2CCCCC2)nc(SCC(=O)c2ccc(OC(=O)CN)cc2)[nH]c1=O [Compound I-1],138,–,–
0.003,CC(C)c1c(CC2CCCCC2)nc(SCC(=O)c2ccc(OC(=O)CN)cc2)[nH]c1=O [Compound I-17],191,–,–
0.008,Cc1c(CC2CCCCC2)nc(SCC(=O)c2ccc(OC(=O)CN)cc2)[nH]c1=O [Compound I-23],> 200,–,–
0.012,CC(C)c1c(CC2CCCCC2)nc(SCC(=O)c2ccc(OC(=O)C3CCCN3)cc2)[nH]c1=O (stereo not shown) [Compound I-15],98.3,–,–
0.004,CCc1c(CC2CCCCC2)nc(SCC(=O)c2ccc(OC(=O)C(N)CCSC)cc2)[nH]c1=O (stereo not shown) [Compound I-8],116,–,–
0.012,CCc1c(CC2CCCCC2)nc(SCC(=O)c2ccc(OC(=O)C(N)Cc3cnc[nH]3)cc2)[nH]c1=O (stereo not shown) [Compound I-10],199,–,–
0.004,CCc1c(CC2CCCCC2)nc(SCC(=O)c2ccc(OC(=O)[C@@H](C)N)cc2)[nH]c1=O [Compound I-6],96,–,–
0.004,CC(C)c1c(CC2CCCCC2)nc(SCC(=O)c2ccc(OC(=O)C(N)Cc3ccccc3)cc2)[nH]c1=O (stereo not shown) [Compound I-21],95,–,–
0.003,CSCCC(N)C(=O)Oc1ccc(C(=O)CSc2nc(CC3CCCCC3)c(C(C)C)c(=O)[nH]2)cc1 (stereo not shown) [Compound I-20],153,–,–
0.012,CSCCC(N)C(=O)Oc1ccc(C(=O)CSc2nc(CC3CCCCC3)c(C)c(=O)[nH]2)cc1 (stereo not shown) [Compound I-24],199,–,–
0.005,CCc1c(CC2CCCCC2)nc(SCC(=O)c2ccc(OC(=O)[C@H](N)[C@H](C)CC)cc2)[nH]c1=O [Compound I-3],134,–,–
0.01,Cc1c(CC2CCCCC2)nc(SCC(=O)c2ccc(OC(=O)C(N)Cc3ccccc3)cc2)[nH]c1=O (stereo not shown) [Compound I-22],98.6,–,–
0.003,CCc1c(CC2CCCCC2)nc(SCC(=O)c2ccc(OC(=O)C(N)CC(C)C)cc2)[nH]c1=O (stereo not shown) [Compound I-2],112,–,–
0.004,CC[C@@H](C)[C@@H](N)C(=O)Oc1ccc(C(=O)CSc2nc(CC3CCCCC3)c(C(C)C)c(=O)[nH]2)cc1 [Compound I-14],186,–,–
–,"Cc1cn([C@H]2C[C@H](N=[N+]=[N-])[C@@H](CO)O2)c(=O)[nH]c1=O [AZT, Zidovudine, reference compound]",> 749,–,–
0.004,CC(C)CC(N)C(=O)Oc1ccc(C(=O)CSc2nc(CC3CCCCC3)c(C(C)C)c(=O)[nH]2)cc1 (stereo not shown) [Compound I-18],97.4,–,–
0.003,CCc1c(CC2CCCCC2)nc(SCC(=O)c2ccc(OC(=O)C(N)C(C)C)cc2)[nH]c1=O (stereo not shown) [Compound I-13],94.8,–,–

SMILES,EC50 (HIV-1IIIB) [µM],CC50 at 3 days [1] [µM],bioavailability [2],"CC50 at 3 days ([1]; C8166 cells, MTT, three days, read-out: CC50) [µM]"
"Cc1ccnc2c1NC(=O)c1cccnc1N2C1CC1 [NVP, Nevirapine, reference compound]",0.013,–,–,504
